Measured values published in ChEMBL document CHEMBL3137440, “DNDi T. cruzi fenarimol series dataset from which preclinical candidate EPL-BS0967 was identified (see also related datasets: CHEMBL3137386 and CHEMBL2448688)”.
Values after ≈ are worked out from the molar mass of the structure shown. Values joined by “and” are separate entries in the source; they are usually repeats but may differ in a detail not shown here. Equal entries are not always repeated.

Experiments:
in vitro [1] = settings: mouse, microsomes
Trypanosoma cruzi [2] = experiment: (§1) DNDI: Chagas in Vitro; format: functional, organism-based, Tulahuen C4 (LacZ)
[3] = (§2) DNDI: Metabolism; format: ADME, Canis lupus familiaris, Microsome; settings: dog, microsomes
[4] = DNDI: Solubility in 0.01M HCl at pH 2 determined by nephelometry
[5] = DNDI: Solubility, 24 hour, 50 mM Phosphate - pH 2, 37C; format: physicochemical; settings: 50 mM phosphate buffer, read-out: Equilibrium
[6] = (§3) DNDI: Stability, 4 hour; format: ADME, tissue-based, Canis lupus familiaris; settings: dog, blood
Leishmania donovani = experiment: DNDI: Inhibition of formation of Leishmania donovani; format: functional, MHOM/ET/67/L82; set-up: concentration or dose not given beside the values
[7] = DNDI: Lipophilicity (gLogD) at pH 7.4; settings: buffer, pH 7.4
[8] = DNDI: Cytotoxicity against L-6 rat myoblasts from skeletal musclE; settings: L6 rat skeletal muscle myoblasts, IC50
[9] = DNDI: pKa; format: physicochemical; settings: read-out: pKa(1)
[10] = DNDI: Protein binding in human plasma; format: ADME, cell-free; settings: read-out: % bound
Cytochrome P450 2D6 = Cytochrome P450 2D6 (Homo sapiens, UniProt P10635); experiment: (§4) DNDI: CYP Inhibition; format: ADME
Sequence of Cytochrome P450 2D6 (P10635 whole entry): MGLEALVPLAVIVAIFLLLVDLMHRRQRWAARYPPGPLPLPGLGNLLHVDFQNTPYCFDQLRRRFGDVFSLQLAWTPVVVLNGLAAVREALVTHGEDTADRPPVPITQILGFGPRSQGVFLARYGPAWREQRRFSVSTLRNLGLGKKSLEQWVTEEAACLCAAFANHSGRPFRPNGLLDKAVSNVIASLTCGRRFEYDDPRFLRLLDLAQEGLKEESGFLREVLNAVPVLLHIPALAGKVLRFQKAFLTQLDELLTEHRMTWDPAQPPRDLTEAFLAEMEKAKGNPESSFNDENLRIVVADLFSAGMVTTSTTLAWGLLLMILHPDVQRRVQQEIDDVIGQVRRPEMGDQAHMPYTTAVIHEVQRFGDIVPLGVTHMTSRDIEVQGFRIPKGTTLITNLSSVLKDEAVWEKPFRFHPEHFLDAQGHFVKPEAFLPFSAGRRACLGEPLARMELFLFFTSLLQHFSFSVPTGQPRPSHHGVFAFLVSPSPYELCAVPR

Cytochrome P450 1A2 = target: T1, Cytochrome P450 1A2 (Homo sapiens, UniProt P05177); experiment: as §4; format: ADME
T1 sequence (P05177 whole entry): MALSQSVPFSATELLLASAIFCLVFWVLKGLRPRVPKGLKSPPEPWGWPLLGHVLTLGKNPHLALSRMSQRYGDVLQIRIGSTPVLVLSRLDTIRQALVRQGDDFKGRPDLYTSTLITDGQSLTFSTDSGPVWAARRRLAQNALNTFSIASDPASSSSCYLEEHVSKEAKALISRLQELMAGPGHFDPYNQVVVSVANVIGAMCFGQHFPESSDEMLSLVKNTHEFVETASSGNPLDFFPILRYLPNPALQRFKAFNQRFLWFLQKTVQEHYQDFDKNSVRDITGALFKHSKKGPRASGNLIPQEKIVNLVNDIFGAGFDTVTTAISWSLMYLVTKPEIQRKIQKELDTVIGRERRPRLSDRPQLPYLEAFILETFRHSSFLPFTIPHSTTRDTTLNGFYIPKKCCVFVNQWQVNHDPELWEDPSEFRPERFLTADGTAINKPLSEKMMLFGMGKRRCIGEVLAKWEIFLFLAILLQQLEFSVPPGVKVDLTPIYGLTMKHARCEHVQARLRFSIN

[11] = DNDI: Protein binding 10% serum RPMI; format: ADME; settings: RPMI medium with 10% serum; read-out: % bound (converted)
[12] = DNDI: Lipophilicity in water; format: physicochemical
in vitro [13] = settings: human, microsomes
[14] = as §3; format: ADME, tissue-based; settings: blood
Trypanosoma cruzi [15] = experiment: as §1; format: functional, Tulahuen C4 (LacZ)
[16] = DNDI: Protein binding in dog plasma; format: ADME, cell-free, Canis lupus familiaris; settings: read-out: % bound
[17] = DNDI: Solubility, 24 hour, FaSSIF, 37C; format: physicochemical; settings: read-out: Equilibrium
[18] = as §3; format: ADME, cell-free; settings: plasma
[19] = DNDI: Lipophilicity (eLogD) at pH 5; format: physicochemical; settings: buffer
in vitro [20] = settings: mouse, microsomes; remark: listed apart in the source
[21] = DNDI: Lipophilicity (gLogD) at pH 3; settings: buffer, pH 3
[22] = DNDI: Protein binding in human liver microsomes; format: ADME, Microsome; settings: read-out: % bound (converted)
in vitro [23] = settings: human, microsomes; remark: listed apart in the source
[24] = DNDI: Solubility, 24 hour, FeSSIF, 37C; format: physicochemical; settings: read-out: Equilibrium
[25] = as §3; format: ADME, cell-free, Canis lupus familiaris; settings: dog, plasma
[26] = as §2; format: ADME, Microsome; settings: rat, microsomes
[27] = DNDI: Lipophilicity (eLogD) at pH 7.4; format: physicochemical; settings: buffer
[28] = DNDI: Solubility, 24 hour, SGF, 37C; format: physicochemical; settings: read-out: Equilibrium
[29] = DNDI: Solubility, 24 hour, 50 mM phosphate - pH 7.4, 37C; format: physicochemical; settings: 50 mM phosphate buffer, read-out: Equilibrium
[30] = DNDI: Protein binding in rat plasma; format: ADME, cell-free; settings: read-out: % bound
[31] = DNDI: Protein binding in mouse plasma; format: ADME, cell-free; settings: read-out: % bound
[32] = DNDI: Solubility, 24 hour, 20 mM Citrate - pH 3, 37C; format: physicochemical; settings: 20 mM citrate buffer, read-out: Equilibrium
[33] = DNDI: Solubility in phosphate buffer at pH 6.5 determined by nephelometry

FC(F)(F)c1ccc(N(c2cccnc2)C2CCN(c3ccc(C(F)(F)F)cn3)CC2)cc1
half-life (in vitro [1]): 1.17 h | IC50 (Trypanosoma cruzi [2]): 17 nM | IC50 (Trypanosoma cruzi [2]; Trypanosoma cruzi, Tulahuen C4 (LacZ)): 14 nM | half-life [3]: 1.22 h | microsomal CLint [3]: 24 µL/min/mg | solubility kinetic [4]: > 100 µg/mL | solubility thermodynamic at 24 h [5]: 1430 µg/mL (≈ 3070 µM) | remaining at 4 h [6]: 108% | % inhibition (Leishmania donovani): 37.9% | chromatographic logD [7]: > 5.3 | IC50 [8]: > 100000 nM | pKa [9]: 2.41 | fraction unbound [10]: < 0.001 | IC50 (Cytochrome P450 2D6): > 20000 nM | IC50 (Cytochrome P450 1A2): > 20000 nM | fraction unbound [11]: 0.004 | logD [12]: > 5.95 | microsomal CLint (in vitro [13]): 39 µL/min/mg | remaining at 4 h ([14]; human): 101% | remaining at 4 h ([14]; rat): 115% | IC90 (Trypanosoma cruzi [15]): 31 nM and 25 nM | fraction unbound [16]: 0.01 | solubility thermodynamic at 24 h [17]: < 0.25 µg/mL | remaining at 4 h ([18]; human): 97% | remaining at 4 h ([18]; rat): 96% | chromatographic logD [19]: > 6.07 | microsomal CLint (in vitro [20]): 25 µL/min/mg | chromatographic logD [21]: 5 | fraction unbound [22]: 0.002 | half-life (in vitro [23]): 0.75 h | solubility thermodynamic at 24 h [24]: 12.7 µg/mL (≈ 27.2 µM) | remaining at 4 h [25]: 102% | half-life [26]: 1.92 h | microsomal CLint [26]: 15 µL/min/mg | chromatographic logD [27]: > 6.05 | solubility thermodynamic at 24 h [28]: 9680 µg/mL (≈ 20800 µM) | solubility thermodynamic at 24 h [29]: < 0.25 µg/mL | fraction unbound [30]: < 0.001 | fraction unbound [31]: < 0.001 | solubility thermodynamic at 24 h [32]: 53.1 µg/mL (≈ 114 µM) | solubility kinetic [33]: < 1.6 µg/mL
